Laboratory results from the supplement of paper PMC12317010.
Structures can show the parent of a compound that is named as a salt.

Test: collision cross section in nitrogen (drift tube, single-field); higher = larger gas-phase ion size
[1] = ion type: [M+H], ion source: APCI, ion mode: Positive
[2] = ion type: [M+H], ion source: ESI, ion mode: Positive
[3] = ion type: [M+Na], ion source: ESI, ion mode: Positive
[4] = ion type: [M-H], ion source: ESI, ion mode: Negative
[5] = ion type: [M+], ion source: APCI, ion mode: Positive
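Further: chemical standards at 10 µM analysed by drift tube IMS-QTOF MS in about 3.95 torr nitrogen, mean of duplicate injections differing ≤1%, mass error below 10 ppm.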

Structure (SMILES)	collision cross section in nitrogen [1] [Å²]	collision cross section in nitrogen [2] [Å²]	collision cross section in nitrogen [3] [Å²]	collision cross section in nitrogen [4] [Å²]	further results
N#C[C@@H]1CC(F)(F)CN1C(=O)CNC1CC2CCC(C1)N2c1ncccn1 (stereo partly drawn)	176.9	176.9	182.7	–	–
OCCOCCOCCO [Triethylene glycol]	–	–	131.5	–	–
Nc1nc(Cl)nc2c1ncn2[C@H]1C[C@H](O)[C@@H](CO)O1 [Cladribine]	157.2	157	165.8	159.5	–
c1ccc2c(c1)c1cccc3ccc4cccc2c4c31 [Benzo[e]pyrene]	–	–	–	–	collision cross section in nitrogen [5]: 149.7 Å²
CC(=O)OC[C@H]1O[C@@](COC(C)=O)(O[C@H]2O[C@H](COC(C)=O)[C@@H](OC(C)=O)[C@H](OC(C)=O)[C@H]2OC(C)=O)[C@@H](OC(C)=O)[C@@H]1OC(C)=O [Sucrose octaacetate]	–	–	238.1	–	–
Nc1c(Cl)c(Cl)c(Cl)c(Cl)c1Cl [Pentachloroaniline]	–	–	–	138.4	–
CC(=O)NCCCS(=O)(=O)O [1-Propanesulfonic acid, 3-(acetylamino)-, calcium salt (2:1)]	–	–	–	134.9	–
c1ccc(CN(Cc2ccccc2)Cc2ccccc2)cc1 [Tribenzylamine]	169.1	169.2	–	–	–
OCC(CO)(CO)COCC(CO)(CO)CO [Dipentaerythritol]	–	154.2	157.9	154.6	–
CCCCOC(=O)[C@@H](C)Oc1ccc(Oc2ccc(C#N)cc2F)cc1 [Cyhalofop-butyl]	–	–	191.2	–	–
CCCCCCOC(=O)CCCCC(=O)OCCCCCC [Dihexyl hexanedioate]	–	–	202.5	–	–
CS(=O)(=O)c1ccc([C@@H](C[C@H]2CCC(=O)C2)C(=O)Nc2cnccn2)cc1Cl [Piragliatin]	–	–	–	204.3	–
CCNc1nc(NC(C)C)nc(SC)n1 [Ametryn]	155.2	155.5	–	–	–
CCCCCCCCO[C@@H]1O[C@H](CO)[C@@H](O)[C@H](O)[C@H]1O [Octyl beta-D-glucopyranoside]	–	–	181.2	180.1	–
CC(C)(c1ccccc1)c1ccc(O)cc1 [4-Cumylphenol]	–	–	–	157.8	–
Cc1cc(C2(c3cc(C)c(O)cc3C)OS(=O)(=O)c3ccccc32)c(C)cc1O [p-Xylenol blue]	194.4	194.5	200.6	198	–
CCCCCCCCCCCCOC(=O)c1cc(O)c(O)c(O)c1 [Lauryl gallate]	–	–	–	183.1	–
Cc1cc(O)c(Cl)c(C)c1Cl [2,4-Dichloro-3,5-dimethylphenol]	–	–	–	135.4	–
C=C(C)C(=O)Nc1ccc(Cl)c(Cl)c1 [Chloranocryl]	–	–	–	145.8	–
CCCCCCCCCCCCCCCCOS(=O)(=O)O [Sodium hexyldecyl sulfate]	–	–	–	181.3	–
CCOC(=O)c1ccccc1C(=O)O [Monoethyl phthalate]	–	–	–	142	–

Structure (SMILES)	collision cross section in nitrogen [1] [Å²]	collision cross section in nitrogen [2] [Å²]	collision cross section in nitrogen [3] [Å²]	collision cross section in nitrogen [4] [Å²]	further results
CCCCOCCOCCOCCO [2-[2-(2-Butoxyethoxy)ethoxy]ethanol]	–	–	150.9	–	–
CC1(C(=O)Nc2ccc(O)c(Cl)c2Cl)CCCCC1 [Fenhexamid]	166.7	166.4	–	172.6	–
CCCCc1ccc(O)cc1 [4-Butylphenol]	–	–	–	140.6	–
N=C1C=CC(=C(c2ccc(N)cc2)c2ccc(N)cc2)C=C1 [C.I. Basic Red 9 monohydrochloride]	173.3	174.1	–	177.9	collision cross section in nitrogen [5]: 173.7 Å²
Cc1c(Cl)c(=O)oc2cc(O)ccc12 [3-Chloro-7-hydroxy-4-methyl-2-benzopyrone]	–	138.4	–	–	–
N[C@@H](Cc1cc(I)c(Oc2ccc(O)c(I)c2)c(I)c1)C(=O)O [3,5,3′-Triiodo-L-thyronine monosodium salt]	–	204.8	–	198.1	–
O=[N+]([O-])c1cc(C(F)(F)F)c(Cl)c([N+](=O)[O-])c1Nc1ncc(C(F)(F)F)cc1Cl [Fluazinam]	–	–	–	182.2	–
CCCCCCCCOC(=O)c1ccccc1C(=O)O [Octyl hydrogen phthalate]	–	–	181.5	168	–
CCCN(CCC)c1c([N+](=O)[O-])cc(C(C)C)cc1[N+](=O)[O-] [Isopropalin]	172.4	–	–	175.1	–
O=S1(=O)OC(c2cc(Br)c(O)c(Br)c2)(c2cc(Br)c(O)c(Br)c2)c2ccccc21 [Bromophenol blue]	–	–	–	214.2	–
O=C(NC(=O)c1cc(F)c(F)cc1Cl)Nc1cc(F)ccc1N1CCC(C(=O)O)CC1 [AVE2865]	202.7	202.4	195.9	196.2	–
CCC[C@H](N[C@@H](C)C(=O)N1[C@H](C(=O)O)C[C@@H]2CCCC[C@@H]21)C(=O)OCC [Perindopril erbumine]	–	189.7	196.4	190.7	–
Cc1ccc(N)cc1O [5-Amino-2-methylphenol]	–	123.5	–	–	–
Cc1c[nH]c(=O)[nH]c1=O [Thymine]	–	–	–	121	–
CCc1c(C(=O)O)c(=O)cnn1-c1ccc(Cl)cc1 [Clofencet-potassium]	159.2	159	175.3	160.5	–
Cc1nc(-c2ccc(OCC(C)C)c(C#N)c2)sc1C(=O)O [Febuxostat]	–	183.6	–	–	–
CCCCCCCCCCCCN(CCO)CCO [Lauryldiethanolamine]	183.7	184.1	180.3	–	–
CCNc1nc(N)nc(Cl)n1 [Deisopropylatrazine]	133.5	133.7	–	–	–
CCOP(=O)(NC(C)C)Oc1ccc(SC)c(C)c1 (stereo not drawn) [Fenamiphos]	172.5	171.3	178.1	172.2	–
Nc1ccc(N=Nc2ccccc2)c(N)c1 [C.I. Basic Orange 2]	150.7	151.2	–	149.6	–
CC[C@H](NC(=O)c1cc(F)ccc1NS(=O)(=O)c1cccc2cccnc12)c1ccccc1 [AVE3295]	198	197.4	205.8	203	–

Structure (SMILES)	collision cross section in nitrogen [1] [Å²]	collision cross section in nitrogen [2] [Å²]	collision cross section in nitrogen [3] [Å²]	collision cross section in nitrogen [4] [Å²]	further results
NCc1cccnc1 [3-(Aminomethyl)pyridine]	118.5	119.6	–	–	–
c1cc(N(CC2CO2)CC2CO2)ccc1OCC1CO1 (stereo not drawn) [4-(Diglycidylamino)phenyl glycidyl ether]	167.5	167	161.7	–	–
CCCCCCCCCCCCCCCCCC[N+](C)(C)Cc1ccccc1 [Benzalkonium chloride C18 (BAC C18)]	–	–	–	–	collision cross section in nitrogen (ion source: APCI, ion mode: Positive, ion type: [M]+ (permanent cation)): 215.1 Å²; collision cross section in nitrogen (ion source: ESI, ion mode: Positive, ion type: [M]+ (permanent cation)): 216.6 Å²
CC(C)Oc1cc(-n2nc(C(C)(C)C)oc2=O)c(Cl)cc1Cl [Oxadiazon]	–	–	–	177.1	–
CCCCCCCCCCOC(C)=O [Decyl acetate]	–	–	–	155	–
COC(=O)C(C)Oc1ccc(Oc2ncc(C(F)(F)F)cc2Cl)cc1 (stereo not drawn) [Haloxyfop-methyl]	–	184.4	185.6	–	–
CCOP(=S)(Oc1cnc(C(C)(C)C)nc1)OC(C)C (stereo not drawn) [Tebupirimfos]	177.4	177.4	–	–	–
O=C(O)c1cccc([N+](=O)[O-])c1 [Sodium 3-nitrobenzoate]	–	–	–	131.2	–
Nc1ccc(N=Nc2ccccc2)cc1 [C.I. Solvent Yellow 1]	146.1	146.9	–	145.4	–
CCCCOC(=O)c1ccc(O)cc1 [Butylparaben]	–	–	–	149.4	–
CC(C)(C#N)c1cc(Cn2cncn2)cc(C(C)(C)C#N)c1 [Anastrozole]	–	183.5	188.9	178.4	–
CCCOC(=O)c1c(Cl)c(Cl)c(Cl)c(Cl)c1C(=O)OCCC [Dipropyl 3,4,5,6-tetrachlorobenzene-1,2-dicarboxylate]	–	–	191.8	–	–
COc1ccc(Nc2ccccc2)c(C)c1 [4-Methoxy-2-methyl-N-phenylaniline]	150.5	150.5	–	–	collision cross section in nitrogen [5]: 148.1 Å²
CNC[C@H](O)[C@@H](O)[C@H](O)[C@H](O)CO [(2R,3R,4R,5S)-6-(Methylamino)hexane-1,2,3,4,5-pentol]	141	141.3	147.7	140.4	–
CCOc1nc(NC)nc(NC(=O)NS(=O)(=O)c2ccccc2C(=O)OC)n1 [Ethametsulfuron-methyl]	–	197.6	–	196	–
CCOC(=O)CC(SP(=S)(OC)OC)C(=O)OCC (stereo not drawn) [Malathion]	–	–	172.2	–	–
CCc1cccc(O)c1 [3-Ethylphenol]	–	–	–	127.5	–
O=[N+]([O-])c1cc([N+](=O)[O-])c2ccccc2c1 [1,3-Dinitronaphthalene]	–	–	–	138.9	–
COC(=O)c1ccccc1S(=O)(=O)NC(=O)Nc1nc(OC(F)F)cc(OC(F)F)n1 [Primisulfuron-methyl]	–	–	199.7	–	–
C=CC(=O)OCCOCCOCC [2-(2-Ethoxyethoxy)ethyl acrylate]	–	–	142.6	–	–
